Reference: article PMC6717215, “Chemical characterization and biological activity data for a novel indirubin derivative, LDD-1819” (Data in Brief, 2019)
Where a name gives a salt, the structure may show the parent alone.

How the values were obtained:
[1] = target: T1, glycogen synthase kinase-3 β (GSK-3β) (Homo sapiens, UniProt P49841); assay: Z′-LYTE FRET peptide biochemical kinase assay, ATP at Km, concentration-dependent
T1 construct: gene GSK3B

aurora kinase A = target: T2, aurora kinase A (Homo sapiens, UniProt O14965); assay: as above
T2 construct: gene AURKA
T2 sequence (O14965 1-403): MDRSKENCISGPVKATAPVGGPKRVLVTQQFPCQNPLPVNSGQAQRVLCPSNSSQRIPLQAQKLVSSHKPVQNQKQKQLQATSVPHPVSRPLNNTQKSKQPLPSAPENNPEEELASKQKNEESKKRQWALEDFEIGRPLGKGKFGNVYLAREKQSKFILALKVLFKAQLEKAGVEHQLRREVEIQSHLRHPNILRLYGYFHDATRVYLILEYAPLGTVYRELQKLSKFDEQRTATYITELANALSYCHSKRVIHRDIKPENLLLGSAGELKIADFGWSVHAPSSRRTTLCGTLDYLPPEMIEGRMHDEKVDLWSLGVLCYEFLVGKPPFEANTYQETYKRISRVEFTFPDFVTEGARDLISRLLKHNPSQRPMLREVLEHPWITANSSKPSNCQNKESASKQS

T1 sequence (P49841 whole entry): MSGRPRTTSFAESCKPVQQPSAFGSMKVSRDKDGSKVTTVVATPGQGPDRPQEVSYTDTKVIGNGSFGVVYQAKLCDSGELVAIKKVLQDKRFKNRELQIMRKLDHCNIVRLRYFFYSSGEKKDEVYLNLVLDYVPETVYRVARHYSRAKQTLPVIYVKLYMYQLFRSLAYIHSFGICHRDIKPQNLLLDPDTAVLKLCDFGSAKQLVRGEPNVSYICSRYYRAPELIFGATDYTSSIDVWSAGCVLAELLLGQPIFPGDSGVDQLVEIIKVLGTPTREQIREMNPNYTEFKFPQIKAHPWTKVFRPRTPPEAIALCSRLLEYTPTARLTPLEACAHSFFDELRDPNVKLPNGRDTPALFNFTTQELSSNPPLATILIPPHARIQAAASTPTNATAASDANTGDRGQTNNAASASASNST

IC50 [1]: 0.00546 µM
IC50 (aurora kinase A): 0.222 µM
SMILES: NCCO/N=C1/C(=C2/C(=O)Nc3ccc([N+](=O)[O-])cc32)Nc2ccc(O)cc21 [LDD-1819, (2Z,3E)-3-((2-aminoethoxy)imino)-5-hydroxy-5′-nitro-[2,3′-biindolinylidene]-2′-one hydrochloride]
